From US11136297B2, “Compositions and methods for treating cancer” (THE REGENTS OF THE UNIVERSITY OF CALIFORNIA, priority 2016, dated 2021)
“Also recorded” adds a separate entry of the source.

Experiments:
[1] = target: T1, 1-169 K-Ras(M72C) GDP (Homo sapiens, UniProt P01116, M72C); test: Disulfide tethering screen, percent modification by intact protein mass spectrometry; type: binding; conditions: screening βME 1 mM
T1 construct: Untagged recombinant 1-169 K-Ras(M72C) GDP; His6 (cleaved yes); made in house; host or cells: Escherichia coli BL21(DE3)
From the text: In some embodiments, a library of disulfide compounds may be screened against a cysteine-containing protein in the presence of a reducing agent such as β-mercaptoethanol (BME). Compounds with complementary binding contacts with a region of the protein near the cysteine may shift the disulfide exchange equilibrium away from BME modification of the cysteine thiol and enhance the ratio of the hit ligand bound to the cysteine. The resulting mass change of the protein can be readily detected by mass spectrometry, and the percentage of modified protein can be used as a measure of potency. Compounds which exchange with the cysteine without conferring affinity should exchange with reducing agent equally well and will not shift the equilibrium toward protein modification. The potency of various compounds at a given concentration of BME may be compared by calculating the dose-response 50 (DR50), which is the concentration of compound at which the protein becomes 50% modified.
A tethering library of 960 disulfides were screened against 1-169 K-Ras(M72C) GDP using intact protein mass spectrometry to monitor percent modification (See Methods, and FIG. 37). […] To better prioritize tethering fragments, a βME50 value (the concentration of βME needed to reduce disulfide fragment modification to 50%) was determined for each compound. […]

[2] = target: T2, H-Ras(M72C) activation by SOScat (Homo sapiens, UniProt P01112, M72C); test: SOScat catalyzed nucleotide exchange read out by Raf-1-RBD pull-down; type: biochemical
T2 construct: and H-Ras (residues 1-166) were transformed into Escherichia coli; His6; made in house; host or cells: Escherichia coli BL21(DE3)
Method: FIGS. 29A-29D. […] FIG. 29D: Reconstruction of Ras cycle is achieved by inducing nucleotide exchange of 100 nM Ras by various concentrations of SOS^cat for either 1 or 2 hours and subsequent pull-down by Raf-1-RBD.
FIGS. 33A-33D. […] In FIG. 33B) through FIG. 33D), normalized pull-down signals are shown below the blot. S. E. M for each signal, number of replicates, and […] for each comparative Standard T-Test are summarized herein (see Tables 33B, 33C, and 33D). […] Comparative statistics were done for normalized pull-down signals between protein constructs of the same condition (i.e. in FIG. 33B) and FIG. 33C), column 1 for unlabeled and 1 for labeled protein, 2 for unlabeled and 2 for labeled, and so on were statistically compared, and in FIG. 33D) only the +SOS^cat and +GppNHp lanes were compared across protein constructs). FIG. 33A) Cartoon representation of pull down protocol. […] Reported values are quantified pull-down signals normalized to input. FIG. 33B) Cartoon representation of pull down protocol. […] FIG. 33C) Cartoon representation of pull down protocol. […] FIG. 33D) Cartoon representation of pull down protocol. Ras activation is achieved by catalyzing nucleotide exchange by SOS^cat and indirectly reading out activated Ras by subsequent pull down by Raf-1-RBD.

[3] = target: T3, full-length wild-type K-Ras (Homo sapiens, UniProt P01116); test: Disulfide fragment labeling of full-length wild-type K-Ras (Cys 72 selectivity); type: binding; conditions: wild-type K-Ras contains 4 native cysteine residues
T3 construct: His6; made in house; host or cells: Escherichia coli BL21(DE3)

[4] = target: T4, H-Ras(M72C) GppNHp binding to Raf-1-RBD (Homo sapiens, UniProt P01112, M72C); test: Ras GppNHp in vitro pull down by His6-MBP-Raf-1-RBD; conditions: H-Ras(M72C) pre-labeled with compound
T4 construct: and H-Ras (residues 1-166) were transformed into Escherichia coli; His6; made in house; host or cells: Escherichia coli BL21(DE3)
Method: Ras GppNHp In Vitro Pull Down Assay by His6-MBP-Raf-1-RBD. For each His6-MBP-Raf-1-RBD in vitro pull down the total volume was 500 μL. Each reaction had the following final composition: Either 20, 80, 200, 400, or 800 nM Ras GppNHp (from 0.2 mg/mL Ras stock), 75 nM BSA (2.5 μg, 5 μL of 0.5 mg/mL BSA stock), 200 nM of His6-MBP-Raf-1-RBD (5.3 μg, 1.2 μL of 4.38 mg/mL stock of His6-MBP-Raf-1-RBDwitt), and Raf Pull Down Buffer to volume (25 mM Tris (pH 7.2), 150 mM NaCl, 5 mM MgCl2, 1% NP-40, 5% glycerol, 20 mM imidazole). Samples were then mixed by gentle rotation at 4° C. for 30 min. While equilibrating, add 50 μL Ni-NTA slurry (Qiagen) to a cellulose acetate spin cup and spin at 5,000 rpm on a tabletop centrifuge for 30 seconds. Wash the beads with 400 μL of Raf Pull Down Buffer to wash away bead storage buffer. Before adding each pull down solution, take 10 μL and save as a loading control sample. To each spin cup filled with washed Ni-NTA beads, add the remaining equilibrated pull down solution, seal the spin cup with parafilm and let rotate at 4° C. for 30 more minutes. After mixing, centrifuge the sample for 30 seconds at 5,000 rpm. Toss flow through. Wash the beads X 5 with 400 μL of Raf Pull Down Buffer. After last wash, centrifuge one last time to remove any excess buffer stuck to the beads. […] Blots were read out using LICOR compatible secondary antibodies. […]

With `COc1ccc(-n2ncc(C(=O)NCCCSSCCN(C)C)c2C(F)(F)F)cc1` [Compound 2C07, N-(3-((2-(dimethylamino)ethyl)disulfanyl)propyl)-1-(4-methoxyphenyl)-5-(trifluoromethyl)-1H-pyrazole-4-carboxamide] the percent modification [1] was 69.7%, the “SOScat catalyzed nucleotide exchange” value [2] was “inhibits activation of H-Ras by SOS^cat; also recorded: inhibits SOS^cat catalyzed nucleotide exchange” and the “modification of full-length wild-type K-Ras” value [3] was “did not modify”. The “Raf-1-RBD binding (pull down), labeled vs unlabeled H-Ras(M72C)” value [4] was “no significant difference in Raf-1-RBD binding”.
